Data: article PMC9005681, “Use of AD Informer Set compounds to explore validity of novel targets in Alzheimer's disease pathology” (Alzheimer's & Dementia : Translational Research & Clinical …, 2022)
Several values for one entry are separate records, joined by “and”; a condition that tells them apart may be missing. Equal entries are not always repeated.

Assays:
Test in all cases: PDSP GPCR panel primary binding assays at 10 μM
[1] = target: T1, cloned human or rodent CNS receptors, channels, and transporters (PDSP panel) (Homo sapiens, UniProt P28221); conditions: primary assay
T1 construct: expressed in transfected cells
Method in brief: (§1)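 Competition binding with radiolabeled standard ligands, single 10 μM concentration, four replicates. Targets showing over 50% displacement were followed up with 11-point titrations in triplicate.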

[2] = target: T2, cloned human or rodent CNS receptors, channels, and transporters (PDSP panel) (Homo sapiens, UniProt P47898); conditions: primary assay
T2 construct: expressed in transfected cells
Method in brief: as §1

[3] = target: T3, cloned human or rodent CNS receptors, channels, and transporters (PDSP panel) (Homo sapiens, UniProt P34969); conditions: primary assay
T3 construct: expressed in transfected cells
Method in brief: as §1

[4] = target: T4, cloned human or rodent CNS receptors, channels, and transporters (PDSP panel) (Homo sapiens, UniProt P50406); conditions: primary assay
T4 construct: expressed in transfected cells
Method in brief: as §1

[5] = target: T5, cloned human or rodent CNS receptors, channels, and transporters (PDSP panel) (Homo sapiens, UniProt P08172); conditions: M2, primary assay; for Mean %: mean inhibition; for Inhibition 1: replicate 1; for Inhibition 2: replicate 2; for Inhibition 3: replicate 3; for Inhibition 4: replicate 4
T5 construct: expressed in transfected cells
T5 sequence (P08172 1-466): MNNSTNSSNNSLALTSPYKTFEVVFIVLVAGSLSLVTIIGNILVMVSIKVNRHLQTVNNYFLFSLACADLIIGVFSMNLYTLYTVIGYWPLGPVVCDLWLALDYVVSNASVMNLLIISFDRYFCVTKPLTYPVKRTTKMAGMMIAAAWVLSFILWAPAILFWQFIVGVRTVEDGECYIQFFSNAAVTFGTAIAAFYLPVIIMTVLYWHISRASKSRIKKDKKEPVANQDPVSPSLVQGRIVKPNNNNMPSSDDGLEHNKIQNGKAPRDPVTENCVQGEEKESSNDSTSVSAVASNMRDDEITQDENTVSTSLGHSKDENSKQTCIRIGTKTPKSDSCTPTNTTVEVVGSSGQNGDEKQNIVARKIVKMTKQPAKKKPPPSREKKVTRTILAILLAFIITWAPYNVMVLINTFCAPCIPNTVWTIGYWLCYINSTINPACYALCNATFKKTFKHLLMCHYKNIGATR
Method in brief: as §1

[6] = target: T6, cloned human or rodent CNS receptors, channels, and transporters (PDSP panel) (Homo sapiens, UniProt P18089); conditions: primary assay
T6 construct: expressed in transfected cells
T6 sequence (P18089 1-450): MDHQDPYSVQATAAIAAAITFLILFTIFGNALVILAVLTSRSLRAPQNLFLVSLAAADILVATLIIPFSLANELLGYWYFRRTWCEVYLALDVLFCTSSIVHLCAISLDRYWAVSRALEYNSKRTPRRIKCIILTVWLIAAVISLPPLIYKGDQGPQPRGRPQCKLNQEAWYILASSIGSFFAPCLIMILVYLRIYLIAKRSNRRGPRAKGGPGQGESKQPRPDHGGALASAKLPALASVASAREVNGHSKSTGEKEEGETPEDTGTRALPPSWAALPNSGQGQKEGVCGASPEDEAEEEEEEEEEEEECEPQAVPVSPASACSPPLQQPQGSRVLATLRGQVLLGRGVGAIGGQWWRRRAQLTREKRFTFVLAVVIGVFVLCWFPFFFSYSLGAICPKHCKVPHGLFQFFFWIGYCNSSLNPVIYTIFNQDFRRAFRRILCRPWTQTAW
Method in brief: as §1

[7] = target: T7, cloned human or rodent CNS receptors, channels, and transporters (PDSP panel) (Homo sapiens, UniProt P08173); conditions: primary assay
T7 construct: expressed in transfected cells
T7 sequence (P08173 1-479): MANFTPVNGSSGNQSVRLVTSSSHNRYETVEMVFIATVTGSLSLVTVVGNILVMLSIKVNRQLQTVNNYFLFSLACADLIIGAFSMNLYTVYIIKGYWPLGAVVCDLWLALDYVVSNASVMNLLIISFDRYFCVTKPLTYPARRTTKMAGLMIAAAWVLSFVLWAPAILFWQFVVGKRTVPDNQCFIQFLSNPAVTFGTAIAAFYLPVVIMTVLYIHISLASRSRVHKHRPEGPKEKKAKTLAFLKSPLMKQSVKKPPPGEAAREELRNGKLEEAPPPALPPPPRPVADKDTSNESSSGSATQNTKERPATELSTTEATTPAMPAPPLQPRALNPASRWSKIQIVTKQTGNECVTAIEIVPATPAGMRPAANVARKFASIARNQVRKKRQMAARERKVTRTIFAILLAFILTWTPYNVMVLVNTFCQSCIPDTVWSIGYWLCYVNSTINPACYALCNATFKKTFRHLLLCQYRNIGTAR
Method in brief: as §1

T1 sequence (P28221 whole entry): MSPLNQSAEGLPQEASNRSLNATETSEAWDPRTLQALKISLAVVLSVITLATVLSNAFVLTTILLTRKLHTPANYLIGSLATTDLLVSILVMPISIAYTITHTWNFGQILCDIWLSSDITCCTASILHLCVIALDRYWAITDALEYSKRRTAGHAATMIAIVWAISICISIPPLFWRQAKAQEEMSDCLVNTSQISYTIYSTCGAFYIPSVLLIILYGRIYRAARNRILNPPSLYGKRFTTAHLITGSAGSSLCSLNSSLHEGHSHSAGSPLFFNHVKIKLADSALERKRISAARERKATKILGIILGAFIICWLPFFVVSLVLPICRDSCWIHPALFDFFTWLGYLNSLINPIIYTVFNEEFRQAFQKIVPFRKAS
T3 sequence (P34969 whole entry): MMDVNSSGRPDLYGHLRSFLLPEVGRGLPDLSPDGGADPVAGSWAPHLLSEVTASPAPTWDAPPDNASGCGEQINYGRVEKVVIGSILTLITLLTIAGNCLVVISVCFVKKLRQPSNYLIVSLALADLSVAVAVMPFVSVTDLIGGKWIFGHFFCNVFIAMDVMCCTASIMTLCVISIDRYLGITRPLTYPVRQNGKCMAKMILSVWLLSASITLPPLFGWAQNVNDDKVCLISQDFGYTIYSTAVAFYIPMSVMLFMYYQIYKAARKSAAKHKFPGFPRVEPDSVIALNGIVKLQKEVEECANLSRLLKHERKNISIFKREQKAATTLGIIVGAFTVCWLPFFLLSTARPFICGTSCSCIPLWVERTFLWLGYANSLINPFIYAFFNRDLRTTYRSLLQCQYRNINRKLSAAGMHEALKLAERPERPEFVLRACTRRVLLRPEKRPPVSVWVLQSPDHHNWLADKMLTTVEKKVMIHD
T4 sequence (P50406 whole entry): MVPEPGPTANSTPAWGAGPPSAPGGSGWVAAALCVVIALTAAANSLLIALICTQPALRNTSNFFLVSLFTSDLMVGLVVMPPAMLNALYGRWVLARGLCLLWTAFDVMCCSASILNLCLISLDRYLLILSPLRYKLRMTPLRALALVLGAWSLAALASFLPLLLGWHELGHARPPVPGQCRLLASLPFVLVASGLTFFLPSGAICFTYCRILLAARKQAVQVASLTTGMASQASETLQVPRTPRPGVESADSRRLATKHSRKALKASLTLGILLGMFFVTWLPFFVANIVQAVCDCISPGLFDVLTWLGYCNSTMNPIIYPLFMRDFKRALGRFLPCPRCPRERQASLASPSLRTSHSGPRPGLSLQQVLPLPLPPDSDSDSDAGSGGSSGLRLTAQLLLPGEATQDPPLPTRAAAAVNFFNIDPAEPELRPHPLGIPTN
T2 sequence (P47898 whole entry): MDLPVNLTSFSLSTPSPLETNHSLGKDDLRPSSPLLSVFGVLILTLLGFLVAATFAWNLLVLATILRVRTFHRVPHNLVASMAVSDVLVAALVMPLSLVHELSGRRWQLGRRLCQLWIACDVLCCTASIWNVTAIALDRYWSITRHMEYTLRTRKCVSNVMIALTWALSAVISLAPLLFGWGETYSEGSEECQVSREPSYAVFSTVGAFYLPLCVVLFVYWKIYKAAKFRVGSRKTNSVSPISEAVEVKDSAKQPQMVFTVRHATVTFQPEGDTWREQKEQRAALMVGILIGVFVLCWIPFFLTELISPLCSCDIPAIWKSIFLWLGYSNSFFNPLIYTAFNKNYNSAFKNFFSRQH

CC(=O)N1CCC(NC(=O)NC23CC4CC(CC(C4)C2)C3)CC1 [UNC10302683A, AR9281]
Mean % ([1]; 5-HT1D, mean inhibition): 6.45%
Inhibition 1 ([1]; 5-HT1D, replicate 1): 17.8%
Inhibition 2 ([1]; 5-HT1D, replicate 2): 3.64%
Inhibition 3 ([1]; 5-HT1D, replicate 3): 4.06%
Inhibition 4 ([1]; 5-HT1D, replicate 4): 0.31%
Mean % ([2]; 5-HT5A, mean inhibition): -4.79% and -3.44%
Inhibition 1 ([2]; 5-HT5A, replicate 1): 13.38% and 13.31%
Inhibition 2 ([2]; 5-HT5A, replicate 2): 8.95% and -14.87%
Inhibition 3 ([2]; 5-HT5A, replicate 3): -49.4% and -7.36%
Inhibition 4 ([2]; 5-HT5A, replicate 4): 7.91% and -4.85%
Mean % ([3]; 5-HT7A, mean inhibition): 20.3%
Inhibition 1 ([3]; 5-HT7A, replicate 1): 4.73%
Inhibition 2 ([3]; 5-HT7A, replicate 2): 29.98%
Inhibition 3 ([3]; 5-HT7A, replicate 3): 12.78%
Inhibition 4 ([3]; 5-HT7A, replicate 4): 33.7%
Mean % ([4]; 5-HT6, mean inhibition): 9.33%
Inhibition 1 ([4]; 5-HT6, replicate 1): 32.27%
Inhibition 2 ([4]; 5-HT6, replicate 2): 17.51%
Inhibition 3 ([4]; 5-HT6, replicate 3): -5.68%
Inhibition 4 ([4]; 5-HT6, replicate 4): -6.79%
Mean % [5]: -10.23%
Inhibition 1 [5]: -16.19%
Inhibition 2 [5]: -6.36%
Inhibition 3 [5]: -14.96%
Inhibition 4 [5]: -3.41%
Mean % ([6]; Alpha2B, mean inhibition): 16.32%
Inhibition 1 ([6]; Alpha2B, replicate 1): 9.7%
Inhibition 2 ([6]; Alpha2B, replicate 2): 20.78%
Inhibition 3 ([6]; Alpha2B, replicate 3): 26.1%
Inhibition 4 ([6]; Alpha2B, replicate 4): 8.7%
Mean % ([7]; M4, mean inhibition): 12.52%
Inhibition 1 ([7]; M4, replicate 1): 4.48%
Inhibition 2 ([7]; M4, replicate 2): 16.88%
Inhibition 3 ([7]; M4, replicate 3): 4.25%
Inhibition 4 ([7]; M4, replicate 4): 24.46%

O=c1oc2ccccc2cc1-c1cn2cc(Cc3ccc(F)cc3)sc2n1 [UNC10302680A, iMDK]
Inhibition 1 ([1]; Receptor 5-HT1D, 10 μM): -3.85%
Inhibition 2 ([1]; Receptor 5-HT1D, 10 μM): -18.84%
Inhibition 3 ([1]; Receptor 5-HT1D, 10 μM): 15.72%
Inhibition 4 ([1]; Receptor 5-HT1D, 10 μM): -8.43%
Mean % ([1]; Receptor 5-HT1D, 10 μM, mean of Inhibition 1-4): -3.85%
Inhibition 1 ([2]; Receptor 5-HT5A, 10 μM): -14.99%
Inhibition 2 ([2]; Receptor 5-HT5A, 10 μM): -18.16%
Inhibition 3 ([2]; Receptor 5-HT5A, 10 μM): -6.28%
Inhibition 4 ([2]; Receptor 5-HT5A, 10 μM): -0.35%
Mean % ([2]; Receptor 5-HT5A, 10 μM, mean of Inhibition 1-4): -9.95%
Inhibition 1 ([3]; Receptor 5-HT7A, 10 μM): 13.87%
Inhibition 2 ([3]; Receptor 5-HT7A, 10 μM): 2.87%
Inhibition 3 ([3]; Receptor 5-HT7A, 10 μM): -0.54%
Inhibition 4 ([3]; Receptor 5-HT7A, 10 μM): 21.31%
Mean % ([3]; Receptor 5-HT7A, 10 μM, mean of Inhibition 1-4): 9.38%
Inhibition 1 ([4]; Receptor 5-HT6, 10 μM): -5.99%
Inhibition 2 ([4]; Receptor 5-HT6, 10 μM): -28.7%
Inhibition 3 ([4]; Receptor 5-HT6, 10 μM): -13.62%
Inhibition 4 ([4]; Receptor 5-HT6, 10 μM): -18.86%
Mean % ([4]; Receptor 5-HT6, 10 μM, mean of Inhibition 1-4): -16.79%
Mean % [5]: -8.2%
Inhibition 1 [5]: -12.5%
Inhibition 2 [5]: -5.38%
Inhibition 3 [5]: -3.9%
Inhibition 4 [5]: -11.03%
Inhibition 1 ([6]; Receptor Alpha2B, 10 μM): 0.83%
Inhibition 2 ([6]; Receptor Alpha2B, 10 μM): 1.88%
Inhibition 3 ([6]; Receptor Alpha2B, 10 μM): -7.31%
Inhibition 4 ([6]; Receptor Alpha2B, 10 μM): 7.87%
Mean % ([6]; Receptor Alpha2B, 10 μM, mean of Inhibition 1-4): 0.82%
Inhibition 1 ([7]; Receptor M4, 10 μM): 4.02%
Inhibition 2 ([7]; Receptor M4, 10 μM): 16.88%
Inhibition 3 ([7]; Receptor M4, 10 μM): 25.61%
Inhibition 4 ([7]; Receptor M4, 10 μM): 10.91%
Mean % ([7]; Receptor M4, 10 μM, mean of Inhibition 1-4): 14.36%

CNc1nc(C)nc(N[C@H]2CCC[C@@H](C(=O)NCc3ccc(C#N)cc3C(F)(F)F)C2)n1 [UNC10302679A, GSK2256294A]
Mean % ([1]; 5-HT1D, mean inhibition): 6.14%
Inhibition 1 ([1]; 5-HT1D, replicate 1): 26.13%
Inhibition 2 ([1]; 5-HT1D, replicate 2): 1.56%
Inhibition 3 ([1]; 5-HT1D, replicate 3): 1.56%
Inhibition 4 ([1]; 5-HT1D, replicate 4): -4.69%
Mean % ([2]; 5-HT5A, mean inhibition): 0.62% and -5.72%
Inhibition 1 ([2]; 5-HT5A, replicate 1): 13.64% and 5.79%
Inhibition 2 ([2]; 5-HT5A, replicate 2): -10.06% and -11.12%
Inhibition 3 ([2]; 5-HT5A, replicate 3): -4.07% and -16.75%
Inhibition 4 ([2]; 5-HT5A, replicate 4): 2.96% and -0.78%
Mean % ([3]; 5-HT7A, mean inhibition): 35.21%
Inhibition 1 ([3]; 5-HT7A, replicate 1): 10.61%
Inhibition 2 ([3]; 5-HT7A, replicate 2): 51.06%
Inhibition 3 ([3]; 5-HT7A, replicate 3): 19.91%
Inhibition 4 ([3]; 5-HT7A, replicate 4): 59.27%
Mean % ([4]; 5-HT6, mean inhibition): -6.87%
Inhibition 1 ([4]; 5-HT6, replicate 1): 12.58%
Inhibition 2 ([4]; 5-HT6, replicate 2): -11.55%
Inhibition 3 ([4]; 5-HT6, replicate 3): -17.27%
Inhibition 4 ([4]; 5-HT6, replicate 4): -11.23%
Mean % [5]: -9.25%
Inhibition 1 [5]: -13.73%
Inhibition 2 [5]: -23.07%
Inhibition 3 [5]: -14.72%
Inhibition 4 [5]: 14.53%
Mean % ([6]; Alpha2B, mean inhibition): 9.85%
Inhibition 1 ([6]; Alpha2B, replicate 1): 12.19%
Inhibition 2 ([6]; Alpha2B, replicate 2): 4.49%
Inhibition 3 ([6]; Alpha2B, replicate 3): 0.5%
Inhibition 4 ([6]; Alpha2B, replicate 4): 22.22%
Mean % ([7]; M4, mean inhibition): 14.93%
Inhibition 1 ([7]; M4, replicate 1): 10.45%
Inhibition 2 ([7]; M4, replicate 2): 4.02%
Inhibition 3 ([7]; M4, replicate 3): 7.46%
Inhibition 4 ([7]; M4, replicate 4): 37.78%
